Test results taken from article PMC9516332 (Frontiers in Oncology, 2022).

Tests used:
Test in all cases: Kinase panel profiling at 1 µmol/L (MSA or IMAP), percentage inhibition
Format in all cases: biochemical
[1] = target: panel of 255 wild-type kinases (Homo sapiens, UniProt P09619); conditions: kinase PDGFRβ; 1 µmol/L single concentration; read-out: %-inhibition at 1 µmol/L, PDGFRβ
[2] = target: T1, panel of 255 wild-type kinases (Homo sapiens, UniProt O14757); conditions: CHK1 kinase assay; 1 µmol/L single concentration; read-out: %-inhibition CHK1
T1 sequence (O14757 1-476): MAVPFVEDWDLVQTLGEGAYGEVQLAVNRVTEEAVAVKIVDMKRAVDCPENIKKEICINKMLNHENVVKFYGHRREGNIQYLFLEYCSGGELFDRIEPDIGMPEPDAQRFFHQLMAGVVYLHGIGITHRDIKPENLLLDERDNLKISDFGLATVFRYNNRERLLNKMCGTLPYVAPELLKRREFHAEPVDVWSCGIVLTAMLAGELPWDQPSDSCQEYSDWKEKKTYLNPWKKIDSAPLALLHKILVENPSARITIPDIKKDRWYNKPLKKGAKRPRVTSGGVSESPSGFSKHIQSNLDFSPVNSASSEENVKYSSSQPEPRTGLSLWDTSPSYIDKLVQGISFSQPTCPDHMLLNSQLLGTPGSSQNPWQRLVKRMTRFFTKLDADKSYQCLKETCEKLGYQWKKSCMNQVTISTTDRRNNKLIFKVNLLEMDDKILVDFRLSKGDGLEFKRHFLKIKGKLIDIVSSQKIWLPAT

[3] = target: panel of 255 wild-type kinases (Homo sapiens, UniProt P17948); conditions: kinase FLT1; 1 µmol/L single concentration; read-out: %-inhibition at 1 µmol/L, FLT1
[4] = target: panel of 255 wild-type kinases (Homo sapiens, UniProt Q07912); conditions: ACK kinase assay; 1 µmol/L single concentration; read-out: %-inhibition ACK
[5] = target: panel of 255 wild-type kinases (Homo sapiens, UniProt P48729); conditions: kinase CK1α; 1 µmol/L single concentration; read-out: %-inhibition at 1 µmol/L, CK1α
[6] = target: panel of 255 wild-type kinases (Homo sapiens, UniProt P08631); conditions: kinase HCK; 1 µmol/L single concentration; read-out: %-inhibition at 1 µmol/L, HCK
[7] = target: T2, panel of 255 wild-type kinases (Homo sapiens, UniProt O00141); conditions: kinase SGK; 1 µmol/L single concentration; read-out: %-inhibition at 1 µmol/L, SGK
T2 sequence (O00141 1-431): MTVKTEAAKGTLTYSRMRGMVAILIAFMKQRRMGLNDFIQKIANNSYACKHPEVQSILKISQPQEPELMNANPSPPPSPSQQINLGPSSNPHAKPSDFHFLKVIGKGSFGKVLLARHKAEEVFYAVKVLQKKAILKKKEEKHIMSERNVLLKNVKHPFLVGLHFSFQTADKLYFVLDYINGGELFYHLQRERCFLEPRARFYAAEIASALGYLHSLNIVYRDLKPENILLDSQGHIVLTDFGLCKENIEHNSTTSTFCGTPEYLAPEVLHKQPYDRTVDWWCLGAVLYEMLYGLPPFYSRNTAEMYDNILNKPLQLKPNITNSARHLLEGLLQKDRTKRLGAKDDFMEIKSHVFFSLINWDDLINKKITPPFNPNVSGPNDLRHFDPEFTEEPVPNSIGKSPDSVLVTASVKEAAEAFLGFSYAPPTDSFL

[8] = target: T3, panel of 255 wild-type kinases (Homo sapiens, UniProt Q9HBY8); conditions: kinase SGK2; 1 µmol/L single concentration; read-out: %-inhibition at 1 µmol/L, SGK2
T3 sequence (Q9HBY8 1-367): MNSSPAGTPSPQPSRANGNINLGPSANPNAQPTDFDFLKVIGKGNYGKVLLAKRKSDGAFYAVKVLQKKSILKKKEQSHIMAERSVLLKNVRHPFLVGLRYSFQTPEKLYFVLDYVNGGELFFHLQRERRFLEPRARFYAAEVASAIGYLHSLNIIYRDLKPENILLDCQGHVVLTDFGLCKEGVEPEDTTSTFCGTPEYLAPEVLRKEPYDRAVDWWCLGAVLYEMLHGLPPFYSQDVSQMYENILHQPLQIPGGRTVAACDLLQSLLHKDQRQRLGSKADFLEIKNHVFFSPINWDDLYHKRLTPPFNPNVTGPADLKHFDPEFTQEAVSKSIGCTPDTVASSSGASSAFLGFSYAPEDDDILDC

[9] = target: panel of 255 wild-type kinases (Homo sapiens, UniProt P12931); conditions: kinase SRC; 1 µmol/L single concentration; read-out: %-inhibition at 1 µmol/L, SRC

SMILES | inhibition at 1 µM [1] | inhibition at 1 µM [2] | inhibition at 1 µM [3] | inhibition at 1 µM [4] | inhibition at 1 µM [5] | inhibition at 1 µM [6] | inhibition at 1 µM [7] | inhibition at 1 µM [8] | inhibition at 1 µM [9]
COc1ccc(CN2C3CC2CN(c2ccc(-c4cc(OCC(C)(C)O)cn5ncc(C#N)c45)cn2)C3)cn1 [selpercatinib] | 94% | 29% | 98% | 4.48% | 25% | 58% | 11% | 10% | 48%
Cn1cnc2c(F)c(Nc3ccc(Br)cc3Cl)c(C(=O)NOCCO)cc21 [selumetinib] | 20% | 2.73% | 4.22% | 0.731% | -3.42% | 4% | 1.83% | -5% | -2.83%
Cc1cc(Nc2ncnc3ccc(NC4=NC(C)(C)CO4)cc23)ccc1Oc1ccn2ncnc2c1 [tucatinib] | 31% | 5.71% | 3.22% | 9% | 0.588% | -3% | 0.299% | -4% | -2%
